Test results: patent US10071095B2, “1,2,4-triazolo [4,3-A] pyridine derivatives and their use for the treatment of neurological and psychiatric disorders” (JANSSEN PHARMACEUTICALS, INC., priority 2009, dated 2018)
Where two headings read alike, the source gives them in different places. Marks after values point to notes of the source that are not given here. One block for each compound: values may come before it.

Experiments:
human mGluR2 receptor = target: T1, human mGluR2 receptor (Homo sapiens, UniProt Q14416); assay: [35S]GTPγS binding assay, positive allosteric modulation (GTPγS-PAM) in presence of EC20 glutamate; type: biochemical; details: in presence of glutamate at EC20, average pEC50 if more experiments, ‡ means tested once; for EC50: read-out: GTPγS - hR2 PAM pEC50 (converted)
T1 construct: expressed in transfected cells; host or cells: CHO cells
In short: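 Membranes from butyrate-stimulated CHO cells expressing human mGluR2 (7 μg protein) preincubated 30 min at 30°C with compound plus ~EC20 glutamate in HEPES pH 7.4, 100 mM NaCl, 3 mM MgCl2, 10 μM GDP, 10 μg/ml saponin. [35S]GTPγS (0.1 nM) incorporation over 30 min at 30°C measured by filtration and scintillation counting.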

[1] = tested on: PCP-induced hyperlocomotion in male NMRI mice; assay: Phencyclidine (PCP)-induced hyperlocomotion in mice (video tracking); type: in vivo; details: for ED50: Mus musculus, read-out: Mice ED50 (mg/kg) PCP-Inh.; for Mice ED50 (mg/kg) PCP-Inh. / Mice ED50 (mg/kg) PCP-Inh., estimated ED50 (footnote a): inhibition of PCP-induced hyperlocomotion; for Mice ED50 (mg/kg) PCP-Inh.: dose at which 50% of the tested animals show the effect; for Mice ED50 (mg/kg) PCP-Inh., estimated ED50 (footnote a): estimated ED50 values (n = 3 per dose; 4-fold separation between doses)
Protocol: Motor Activity (Video Tracking)
Apparatus and General Procedure
On the day of experiments, the mice were brought into the procedural room. They were housed individually and allowed to acclimate for at least a half hour prior to testing. Although the studies were conducted during the light cycle (from 8:00 to 16:00 h), the procedure room was only sparsely lit (3 to 30 LUX) to provide better contrast for the video tracking. Local lighting was used for the injection procedures. During each trial, an individual mouse was placed in an open field arena (grey PVC cylinder with a height of 40 cm and a diameter of 22.5 cm). Each arena was placed on an infrared LED (8×8 LEDs)-lit box (white PVC squared box; 40×40 cm^2; height 12.5 cm). Each mouse was placed in the center of the arena and allowed to explore freely for 30 min. After each trial, the arena was cleaned with a wet and subsequently with a dry cleaning cloth. An infrared sensitive tube camera and a white light source (in arena: 4-7 LUX) were mounted to the ceiling above the observation chamber to record and input activity to a computer. Animal behavior was recorded and analyzed using the Noldus Ethovision XT Video Tracking System (Version 3.1; Noldus, Wageningen, The Netherlands). The total distance traveled (cm) was calculated. Data were then exported to data management systems for further analysis and reporting.
Phencyclidine (PCP)-Induced Hyperlocomotion in Mice
Test compound or solvent was administered at a pre-defined time before measurement (standard: 30 min) to male NMRI mice that were challenged with phencyclidine (PCP; 5 mg/kg, s.c.) 30 min before measurement. Activity was measured for a period of 30 min.

[2] = tested on: conditioned avoidance response in male Wiga Wistar rats; assay: Conditioned avoidance response (CAR) test in rats; type: in vivo; details: for ED50: Rattus norvegicus, po, read-out: ED50 (mg/kg) CAR-Inh.
From the text: Conditioned Avoidance Response (CAR) Test
The apparatus consisted of an inner box surrounded by an outer box. The inner box was composed of four walls of transparent, synthetic material (length×width×height: 30×30×30 cm), an open top, and a grid floor made of 15 pairs of iron bars (2 mm diameter; 6 mm inter-bar distance). Odd and even bars were connected with a source of alternative current (1.0 mA; Coulbourn Instruments Solid State Shocker/Distributor), which could be interrupted by a switch. The outer box was composed of the same material (length×width×height: 40×40×36 cm), also with an open top, with a distance of 5 cm between the inner and outer box on all sides. To decrease the amount of environmental stimuli, three walls of the outer box were made non-transparent. The front wall was left transparent to allow the necessary inspection of the animal during the test. The upper edge of the outer and inner box served as a target for the rats on which to jump with fore- and hind-paws, respectively.
Avoidance Conditioning and Selection of Animals
From their arrival in the laboratory on the experimental day, male Wiga Wistar rats (230±30 g) were housed in individual cages provided with bedding material.
Latency to avoidance was recorded. The median avoidance response obtained over the three experimental sessions for each rat were used for further calculations.

[3] = tested on: memantine-induced 2DG uptake in mouse brain (hippocampus); assay: Reversal of memantine-induced brain activation ([14C]2DG uptake) in mice; type: in vivo; details: for L.A.D. (lowest active dose for significant reduction of 2DG uptake in hippocampus vs memantine response): mice C57BL/6, s.c., memantine 20 mg/kg s.c., p<0.05
Protocol: Reversal of Memantine-Induced Brain Activation in Mice
NMDA receptor hypofunction is hypothesized to be involved in schizophrenia.
Autoradiographic assessment of radiolabeled [^14C]-2-deoxyglucose ([^14C]2DG) uptake is commonly used to investigate brain activation. In humans, cerebral blood flow is increased in specific brain regions after administration of a subanaesthetic dose of ketamine.
Male mice (C57BL/6, weight 24-28 g, fasted overnight; n=10 animals per group) were treated with vehicle or test compound (s.c.) in randomized order (t=0 min). Memantine (20 mg/kg, s.c.) was injected 30 min later (t=30 min). At t=45 min, [^14C]2DG (0.16 μCi/g) was administered intraperitoneally (i.p.), followed by a 45 min uptake period. Animals were decapitated (t=90 min), plasma glucose levels measured, the brain removed, rapidly frozen and stored at −20° C. until sectioned. Brain sections were exposed together to a precalibrated [^14C]standard on film, which was developed after four days of exposure. Local tissue [^14C]concentration (nCi/mg tissue equivalent—TEQ—) in each region of interest was determined.
Data was analyzed statistically using a two-way ANOVA analysis followed by post-hoc tests (memantine response versus reversal by the compound). The results are shown in table 5 below, expressed as lowest active dose (L.A.D.) required to exert a statistically significant (p<0.05) reduction of 2DG uptake in the hippocampus compared to memantine response.

[4] = compound administered orally (*); a)/b) = estimated ED50 values
[5] = not marked * (not oral; injection per method); b) = estimated ED50 values (n = 3 per dose)

T1 sequence (Q14416 19-872): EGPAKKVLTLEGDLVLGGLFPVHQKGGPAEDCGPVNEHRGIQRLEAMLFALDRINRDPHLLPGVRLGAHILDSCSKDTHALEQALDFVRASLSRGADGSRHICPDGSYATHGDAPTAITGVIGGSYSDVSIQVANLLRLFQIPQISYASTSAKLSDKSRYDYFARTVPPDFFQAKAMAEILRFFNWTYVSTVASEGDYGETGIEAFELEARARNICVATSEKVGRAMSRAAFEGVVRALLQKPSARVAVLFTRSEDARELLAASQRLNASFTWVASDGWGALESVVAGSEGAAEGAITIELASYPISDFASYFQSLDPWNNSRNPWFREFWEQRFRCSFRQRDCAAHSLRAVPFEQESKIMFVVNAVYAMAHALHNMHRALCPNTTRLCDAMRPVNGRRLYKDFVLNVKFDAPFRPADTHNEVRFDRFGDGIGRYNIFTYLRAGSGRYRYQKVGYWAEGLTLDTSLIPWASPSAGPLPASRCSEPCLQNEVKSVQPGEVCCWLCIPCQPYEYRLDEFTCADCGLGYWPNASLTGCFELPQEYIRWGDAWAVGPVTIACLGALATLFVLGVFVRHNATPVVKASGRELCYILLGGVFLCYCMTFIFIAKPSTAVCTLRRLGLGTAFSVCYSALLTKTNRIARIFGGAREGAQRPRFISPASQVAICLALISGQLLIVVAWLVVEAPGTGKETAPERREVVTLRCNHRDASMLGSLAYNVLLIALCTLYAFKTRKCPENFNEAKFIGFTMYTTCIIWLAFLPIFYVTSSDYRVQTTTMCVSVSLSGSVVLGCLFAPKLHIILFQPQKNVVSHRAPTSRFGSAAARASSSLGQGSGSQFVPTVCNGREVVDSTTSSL

SMILES: FC(F)(F)Cc1nnc2c(Cl)c(N3CCC(F)(c4ccccc4)CC3)ccn12 [compound 3, 8-Chloro-7-(4-fluoro-4-phenyl-1-piperidinyl)-3-(2,2,2-trifluoroethyl)-1,2,4-triazolo[4,3-a]pyridine]
- GTPγS - hR2 PAM pEC50 (human mGluR2 receptor): 6.94
- ED50 [1]: 15.2 mg/kg
- inhibition of PCP-induced hyperlocomotion in mice (in words) [1]: inhibited
- inhibition of the conditioned avoidance response in rats (in words) [2]: inhibited
- ED50 [2, 4]: 14.1 mg/kg
- ED50 [2, 5]: 10.7 mg/kg
- L.A.D. (lowest active dose for significant reduction of 2DG uptake in hippocampus vs memantine response) [3]: ≤2.5 mg/kg, s.c.

SMILES: FC(F)(F)C1(c2ccccc2)CCN(c2ccn3c(CC4CC4)nnc3c2Cl)CC1 [compound 15, 8-Chloro-3-(cyclopropylmethyl)-7-(4-trifluoromethyl-4-phenyl-piperidin-1-yl)-1,2,4-triazolo[4,3-a]pyridine]
- GTPγS - hR2 PAM pEC50 (human mGluR2 receptor): 6.75
- ED50 [1]: > 10 mg/kg
- ED50 [2, 4]: ≥ 40 mg/kg
- melting point: 276.7 °C

SMILES: FC(F)(F)c1c(N2CCC3(CC2)COc2ccccc23)ccn2c(CC3CC3)nnc12 [compound 17, 1′-[3-cyclopropylmethyl-8-(trifluoromethyl)[1,2,4]triazolo[4,3-a]pyridin-7-yl]-spiro[1-benzofuran-3,4′-piperidine]]
- EC50 (human mGluR2 receptor): 35.5 nM
- ED50 [1]: 15.2 mg/kg
- inhibition of PCP-induced hyperlocomotion in mice (in words) [1]: inhibited
- melting point: > 300 °C

SMILES: FC(F)(F)c1c(N2CCN(c3ccccc3)CC2)ccn2c(CC3CC3)nnc12 [compound 76]
- GTPγS - hR2 PAM pEC50 (human mGluR2 receptor): 6.93
- inhibition of PCP-induced hyperlocomotion in mice (in words) [1]: inhibited
- Mice ED50 (mg/kg) PCP-Inh. [1]: 3.1^ mg/kg
- ED50 (mg/kg) CAR-Inh. [2, 4]: ≥40* mg/kg

SMILES: FC(F)(F)Cc1nnc2c(Cl)c(N3CCC4(CC3)COc3ccccc34)ccn12 [compound 98]
- GTPγS - hR2 PAM pEC50 (human mGluR2 receptor): 6.75
- Mice ED50 (mg/kg) PCP-Inh. [1]: >40 mg/kg
- L.A.D. (lowest active dose for significant reduction of 2DG uptake in hippocampus vs memantine response) [3]: ≤10 mg/kg, s.c.

SMILES: CC1(C)OC2(CCN(c3ccn4c(CC5CC5)nnc4c3C(F)(F)F)CC2)c2ccccc21 [compound 112, 1′-[3-cyclopropylmethyl-8-(trifluoromethyl)[1,2,4]triazolo[4,3-a]pyridin-7-yl]-3,3-dimethyl-3H-spiro[benzo[c]furan-1,4′-piperidine]]
- EC50 (human mGluR2 receptor): 6.46 nM
- ED50 [1]: 2 mg/kg
- inhibition of PCP-induced hyperlocomotion in mice (in words) [1]: inhibited
- L.A.D. (lowest active dose for significant reduction of 2DG uptake in hippocampus vs memantine response) [3]: ≤2.5 mg/kg, s.c.
- melting point: 207.7 °C

SMILES: CC1(c2ccccc2)CCN(c2ccn3c(CC4CC4)nnc3c2C(F)(F)F)CC1 [compound 151]
- GTPγS - hR2 PAM pEC50 (human mGluR2 receptor): 7.48
- inhibition of PCP-induced hyperlocomotion in mice (in words) [1]: inhibited
- Mice ED50 (mg/kg) PCP-Inh., estimated ED50 (footnote a) [1]: 12.6 ^a) mg/kg
- L.A.D. (lowest active dose for significant reduction of 2DG uptake in hippocampus vs memantine response) [3]: 10 mg/kg, s.c.

SMILES: c1ccc(C2CCN(c3ccn4c(CC5CC5)nnc4c3C3CC3)CC2)cc1 [compound 159, 3-Cyclopropylmethyl-8-cyclopropyl-7-(4-phenylpiperidin-1-yl)-[1,2,4]triazolo[4,3-a]pyridine]
- EC50 (human mGluR2 receptor): 204 nM
- melting point: > 300 °C

SMILES: CCc1c(N2CCC(c3ccccc3)CC2)ccn2c(CC3CC3)nnc12 [compound 171, 3-Cyclopropylmethyl-8-ethyl-7-(4-phenylpiperidin-1-yl)-[1,2,4]triazolo[4,3-a]pyridine]
- EC50 (human mGluR2 receptor): 251 nM
- melting point: > 300 °C

SMILES: Fc1ccc(N2CCN(Cc3ccn4c(CC5CC5)nnc4c3C(F)(F)F)CC2)c(F)c1 [compound 224, 3-(Cyclopropylmethyl)-7-[[4-(2,4-difluorophenyl)-1-piperazinyl]methyl]-8-(trifluoromethyl)-1,2,4-triazolo[4,3-a]pyridine]
- inhibition of PCP-induced hyperlocomotion in mice (in words) [1]: inhibited
- Mice ED50 (mg/kg) PCP-Inh., estimated ED50 (footnote a) [1]: 2.0 ^a) mg/kg
- inhibition of the conditioned avoidance response in rats (in words) [2]: inhibited
- ED50 [2, 5]: 5 mg/kg

SMILES: FC(F)(F)c1c(CN2CCC(c3ccccc3)CC2)ccn2c(CC3CC3)nnc12 [compound 298, 3-(Cyclopropylmethyl)-7-[(4-phenyl-1-piperidinyl)methyl]-8-(trifluoromethyl)-1,2,4-triazolo[4,3-a]pyridine]
- inhibition of PCP-induced hyperlocomotion in mice (in words) [1]: inhibited
- Mice ED50 (mg/kg) PCP-Inh., estimated ED50 (footnote a) [1]: 5.0 ^a) mg/kg
- inhibition of the conditioned avoidance response in rats (in words) [2]: inhibited
- ED50 [2, 5]: 5 mg/kg

SMILES: O=C(CCCN1CCC(O)(c2ccc(Cl)cc2)CC1)c1ccc(F)cc1 [haloperidol, reference compound]
- effect on memantine-induced brain glucose metabolism / 2DG uptake (in words) ([3]; mouse brain, reference drugs): inactive

Now from value to compound, other results behind:

- EC50 (human mGluR2 receptor): 93.3 nM
- melting point: 147.5 °C
SMILES: C[C@@H]1CN(c2ccn3c(CC4CC4)nnc3c2C(F)(F)F)CCN1c1cc(F)cc(F)c1 [compound 182, 3-(Cyclopropylmethyl)-7-((3R)-4-3,5-difluorophenyl-3-methylpiperazin-1-yl)-(8-trifluoromethyl)-1,2,4-triazolo[4,3-a]pyridine]

- EC50 (human mGluR2 receptor): 1350 nM
- melting point: 283.5 °C
SMILES: Cc1c(C2CCN(c3ccc(F)cc3F)CC2)ccn2c(CC3CC3)nnc12 [compound 204, 3-Cyclopropylmethyl-7-[1-(2,4-difluoro-phenyl)-piperidin-4-yl]-8-methyl-[1,2,4]triazolo[4,3-a]pyridine]

- EC50 (human mGluR2 receptor): 35.5 nM
- melting point: 281.5 °C
SMILES: Brc1c(N2CCC(c3ccccc3)CC2)ccn2c(CC3CC3)nnc12 [compound 207, 8-Bromo-3-cyclopropylmethyl-7-[4-phenylpiperidin-1-yl]-[1,2,4]triazolo[4,3-a]pyridine]

- EC50 (human mGluR2 receptor): 24 nM
- melting point: 142.3 °C
SMILES: CC(c1ccn2c(CC3CC3)nnc2c1C(F)(F)F)N1CCC(c2ccccc2)CC1 (stereo not drawn) [compound 244, 3-cyclopropylmethyl-7-[1-(4-phenyl-1-piperidinyl)ethyl]-8-trifluoromethyl-1,2,4-triazolo[4,3-a]pyridine]
- Mice ED50 (mg/kg) PCP-Inh., estimated ED50 (footnote a) [1]: 5.0 ^a) mg/kg

- EC50 (human mGluR2 receptor): 166 nM
- melting point: 182.1 °C
SMILES: CC(c1ccn2c(CC3CC3)nnc2c1Cl)N1CCC(c2ccccc2)CC1 (stereo not drawn) [compound 255]

- EC50 (human mGluR2 receptor): 204 nM
- melting point: 180.4 °C
SMILES: Fc1cccc(F)c1N1CCN(Cc2ccn3c(CC4CC4)nnc3c2Cl)CC1 [compound 282]
